# Target: T1, Endothelin-converting enzyme 1 (Rattus norvegicus, UniProt P42893)
# T1 sequence (P42893 whole entry): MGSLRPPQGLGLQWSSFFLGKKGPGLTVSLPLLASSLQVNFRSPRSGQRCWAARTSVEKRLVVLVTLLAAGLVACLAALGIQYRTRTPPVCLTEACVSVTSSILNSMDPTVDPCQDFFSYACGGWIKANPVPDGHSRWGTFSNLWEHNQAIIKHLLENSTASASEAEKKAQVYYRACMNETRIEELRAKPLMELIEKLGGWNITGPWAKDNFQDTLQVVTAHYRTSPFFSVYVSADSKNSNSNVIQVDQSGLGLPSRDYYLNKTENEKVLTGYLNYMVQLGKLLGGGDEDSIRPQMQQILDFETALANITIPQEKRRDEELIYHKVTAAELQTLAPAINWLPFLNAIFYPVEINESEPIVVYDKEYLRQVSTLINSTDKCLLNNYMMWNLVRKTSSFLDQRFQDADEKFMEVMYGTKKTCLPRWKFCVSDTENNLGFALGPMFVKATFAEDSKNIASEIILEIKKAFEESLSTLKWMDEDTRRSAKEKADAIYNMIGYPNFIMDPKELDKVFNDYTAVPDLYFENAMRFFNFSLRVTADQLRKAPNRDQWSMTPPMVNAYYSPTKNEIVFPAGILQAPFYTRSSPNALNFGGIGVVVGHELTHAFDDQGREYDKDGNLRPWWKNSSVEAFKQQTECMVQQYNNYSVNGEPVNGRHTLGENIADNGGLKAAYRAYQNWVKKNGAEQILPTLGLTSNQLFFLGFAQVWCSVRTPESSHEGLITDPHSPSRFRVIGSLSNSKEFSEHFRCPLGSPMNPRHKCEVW
# Experiment: Inhibition Assay
# Description: Inhibition assay using ECE.
row,Structure (SMILES),IC50
1,CC(C)(C)CC(=O)Nc1ccc2c(c1)cc(C(=O)Nc1ccn[nH]1)n2Cc1ccccc1F,> 10000 nM
2,"CC(C)(C)CC(=O)Nc1ccc2c(c1)cc(C(=O)Nc1ccccc1)n2Cc1ccccc1F [ECE Inhibitor, 6]",1800 nM
3,"CC(C)(C)CC(=O)Nc1ccc2c(c1)cc(C(=O)Nc1nc3ccccc3[nH]1)n2Cc1ccccc1F [ECE Inhibitor, 8]",> 10000 nM
4,"CC(C)(C)CC(=O)Nc1ccc2c(c1)cc(C(=O)Nc1ccc(Cl)nc1)n2Cc1ccccc1F [ECE Inhibitor, 9]",220 nM

# More lines, in order of falling IC50, values ahead:
row,IC50,Structure (SMILES)
1,410 nM,"CC(C)(C)CC(=O)Nc1ccc2c(c1)cc(C(=O)Nc1ccc(S(=O)(=O)Nc3ccccn3)cc1)n2Cc1ccccc1F [ECE Inhibitor, 10]"
2,180 nM,"CC(C)(C)CC(=O)Nc1ccc2c(c1)cc(C(=O)Nc1cncc(C(=O)O)c1)n2Cc1ccccc1F [ECE Inhibitor, 13]"
3,10 nM,CC(C)(C)CC(=O)Nc1ccc2c(c1)cc(C(=O)Nc1cccc(C(=O)Nc3ccc(S(N)(=O)=O)cc3)c1)n2Cc1ccccc1F
4,10 nM,"CC(C)(C)CC(=O)Nc1ccc2c(c1)cc(C(=O)Nc1cncc(C(=O)Nc3ccc(S(N)(=O)=O)cc3)c1)n2Cc1ccccc1F [ECE Inhibitor, 14]"
